The results in this text go back to ChEMBL document CHEMBL1122435, “Pyrrolopyrimidine nucleosides. 18. Synthesis and chemotherapeutic activity of 4-amino-7-(3-deoxy-beta-D-ribofuranosyl)pyrrolo[2,3-d] pyrimidine-5-carboxamide (3'-deoxysangivamycin) and 4-amino-7-(2-deoxy-beta-D-ribofuranosyl)pyrrolo[2,3-d] pyrimidine-5-carboxamide (2'-deoxysangivamycin)” (1983).

The subject of experiment [1] is L1210. In words: Increase in life span for drug treated L1210-bearing mice at the dose of 128 mg/kg upon intraperitoneal administration. It is filed as functional. Conditions: Mus musculus, L1210, ip.
Experiment [2] deals with L1210. The experiment in a line: Increase in life span for drug treated L1210-bearing mice at the dose of 160 mg/kg upon intraperitoneal administration. It is filed as functional. The note with it: Mus musculus, L1210, ip.
Experiment [3] relates to L1210. In words: Occurrence of drug-induced shortening of life span resulting from treatment at 0.25 mg/kg dose in L1210-bearing mice; y=yes. More on the design: dose 0.25 mg/kg. The note with it: Mus musculus. The class given is functional, organism-based.
The subject of experiment [4] is L1210. The experiment in a line: Increase in life span for drug treated L1210-bearing mice at the dose of 0.25 mg/kg upon intraperitoneal administration. Conditions: Mus musculus, L1210, ip. The class given is functional.
Experiment [5] has as its system L1210. In words: Increase in life span for drug treated L1210-bearing mice at the dose of 100 mg/kg upon intraperitoneal administration. The class given is functional. Conditions: Mus musculus, L1210, ip.
In experiment [6] the test system is L1210. In words: Occurrence of drug-induced shortening of life span resulting from treatment at 100 mg/kg dose in L1210-bearing mice; y=yes. It is filed as functional, organism-based. More on the design: dose 100 mg/kg. The note with it: Mus musculus.

Structures are written as SMILES.

One may read the ILS as the gain in survival time of treated over control animals, in per cent. A higher ILS goes with a large benefit in survival. For `NC(=O)c1cn(C2OC(CO)CC2O)c2ncnc(N)c12` (stereo unspecified), the ILS at 128 mg/kg in experiment [1] is 128%.

In turn, `NC(=O)c1cn([C@H]2C[C@H](O)[C@@H](CO)O2)c2ncnc(N)c12` returned an ILS at 160 mg/kg in experiment [2] of 4%.

Consider `NC(=O)c1cn([C@@H]2O[C@H](CO)[C@@H](O)[C@H]2O)c2ncnc(N)c12` [SANGIVAMYCIN], for which the Toxicity result in experiment [3] is “Yes”. Also, the ILS at 0.25 mg/kg in experiment [4] is 37%.

On to `C[C@H]1OC(n2cc(C(N)=O)c3c(N)ncnc32)[C@H](O)[C@@H]1O` (stereo partly specified), for which, in experiment [5], the ILS at 100 mg/kg was found to be 5%. Moreover, in experiment [6], the Toxicity entry was “Yes”.
